# Experimental data as given in the kinase profiling compilation of Christmann-Franck et al. (2016).
# Experiments:
# Assay in all cases: radiometric filter-binding kinase assay, Kinase HotSpot
# Details in all cases: compound 0.5 µM; ATP 10 µM
# PDGFRB (human) = PDGFRB (human) (UniProt P09619)
# YES1 (human) = YES1 (human) (UniProt P07947)
# EPHA2 (human) = EPHA2 (human) (UniProt P29317)
# CDK5 CDK5R1 p35 (human) = CDK5 CDK5R1 p35 (human) (UniProt Q00535+Q15078)
# CAMKK1 (human) = CAMKK1 (human) (UniProt Q8N5S9)
# CAMKK1 (human), sequence (Q8N5S9 whole entry, looked up): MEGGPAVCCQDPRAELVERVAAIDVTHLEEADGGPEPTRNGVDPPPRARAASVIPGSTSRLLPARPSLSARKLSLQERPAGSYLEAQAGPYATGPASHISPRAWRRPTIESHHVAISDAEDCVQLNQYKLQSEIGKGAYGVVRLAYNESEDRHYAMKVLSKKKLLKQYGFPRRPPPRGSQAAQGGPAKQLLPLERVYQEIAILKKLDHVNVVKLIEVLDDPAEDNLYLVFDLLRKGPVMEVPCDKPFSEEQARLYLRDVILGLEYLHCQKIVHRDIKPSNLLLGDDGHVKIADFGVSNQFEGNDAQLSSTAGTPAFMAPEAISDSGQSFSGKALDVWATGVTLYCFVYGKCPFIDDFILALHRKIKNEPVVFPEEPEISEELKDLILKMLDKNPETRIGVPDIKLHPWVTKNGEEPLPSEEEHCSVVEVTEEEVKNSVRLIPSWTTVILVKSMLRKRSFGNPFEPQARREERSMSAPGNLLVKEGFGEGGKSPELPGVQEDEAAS
# YES1 (human), sequence (P07947 whole entry, looked up): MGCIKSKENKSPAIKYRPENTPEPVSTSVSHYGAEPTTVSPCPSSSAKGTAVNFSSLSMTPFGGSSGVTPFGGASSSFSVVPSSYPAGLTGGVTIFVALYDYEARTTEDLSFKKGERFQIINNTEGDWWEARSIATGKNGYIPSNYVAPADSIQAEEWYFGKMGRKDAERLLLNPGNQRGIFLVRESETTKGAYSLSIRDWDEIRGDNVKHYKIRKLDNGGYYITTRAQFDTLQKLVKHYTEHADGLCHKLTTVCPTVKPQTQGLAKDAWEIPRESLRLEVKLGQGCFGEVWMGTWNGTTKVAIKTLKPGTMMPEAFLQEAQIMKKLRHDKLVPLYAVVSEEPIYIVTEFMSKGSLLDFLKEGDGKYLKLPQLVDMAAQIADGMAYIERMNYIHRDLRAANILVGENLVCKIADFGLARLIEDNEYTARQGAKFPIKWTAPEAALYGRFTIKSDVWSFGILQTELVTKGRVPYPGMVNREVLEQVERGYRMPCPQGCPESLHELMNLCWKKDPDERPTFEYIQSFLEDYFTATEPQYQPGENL
# EPHA2 (human), sequence (P29317 whole entry, looked up): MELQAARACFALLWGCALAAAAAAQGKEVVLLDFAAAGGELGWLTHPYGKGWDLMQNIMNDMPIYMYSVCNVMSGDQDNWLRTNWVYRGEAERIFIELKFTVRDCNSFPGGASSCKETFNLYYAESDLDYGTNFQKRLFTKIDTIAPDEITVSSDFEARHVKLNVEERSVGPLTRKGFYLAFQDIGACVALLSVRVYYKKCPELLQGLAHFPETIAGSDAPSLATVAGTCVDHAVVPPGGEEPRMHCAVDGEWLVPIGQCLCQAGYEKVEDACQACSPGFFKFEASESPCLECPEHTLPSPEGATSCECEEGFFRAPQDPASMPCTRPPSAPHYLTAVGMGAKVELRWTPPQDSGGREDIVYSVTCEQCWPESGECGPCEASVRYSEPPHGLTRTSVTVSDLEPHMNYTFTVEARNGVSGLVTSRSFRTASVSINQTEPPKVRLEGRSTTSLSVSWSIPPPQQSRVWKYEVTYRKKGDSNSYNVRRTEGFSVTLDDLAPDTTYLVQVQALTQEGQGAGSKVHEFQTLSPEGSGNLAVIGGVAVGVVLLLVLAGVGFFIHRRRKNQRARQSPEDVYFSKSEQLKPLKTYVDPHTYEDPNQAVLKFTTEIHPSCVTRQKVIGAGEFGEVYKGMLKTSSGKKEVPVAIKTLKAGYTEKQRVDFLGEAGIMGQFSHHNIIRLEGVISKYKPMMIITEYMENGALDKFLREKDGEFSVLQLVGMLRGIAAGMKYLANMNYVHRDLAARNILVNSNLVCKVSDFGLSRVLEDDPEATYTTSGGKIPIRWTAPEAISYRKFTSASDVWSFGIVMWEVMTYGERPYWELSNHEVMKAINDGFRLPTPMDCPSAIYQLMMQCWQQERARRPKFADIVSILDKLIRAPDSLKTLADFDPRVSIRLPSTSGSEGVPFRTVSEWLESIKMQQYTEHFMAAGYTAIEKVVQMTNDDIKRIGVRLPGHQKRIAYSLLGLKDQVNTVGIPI
# PDGFRB (human), sequence (P09619 whole entry, looked up): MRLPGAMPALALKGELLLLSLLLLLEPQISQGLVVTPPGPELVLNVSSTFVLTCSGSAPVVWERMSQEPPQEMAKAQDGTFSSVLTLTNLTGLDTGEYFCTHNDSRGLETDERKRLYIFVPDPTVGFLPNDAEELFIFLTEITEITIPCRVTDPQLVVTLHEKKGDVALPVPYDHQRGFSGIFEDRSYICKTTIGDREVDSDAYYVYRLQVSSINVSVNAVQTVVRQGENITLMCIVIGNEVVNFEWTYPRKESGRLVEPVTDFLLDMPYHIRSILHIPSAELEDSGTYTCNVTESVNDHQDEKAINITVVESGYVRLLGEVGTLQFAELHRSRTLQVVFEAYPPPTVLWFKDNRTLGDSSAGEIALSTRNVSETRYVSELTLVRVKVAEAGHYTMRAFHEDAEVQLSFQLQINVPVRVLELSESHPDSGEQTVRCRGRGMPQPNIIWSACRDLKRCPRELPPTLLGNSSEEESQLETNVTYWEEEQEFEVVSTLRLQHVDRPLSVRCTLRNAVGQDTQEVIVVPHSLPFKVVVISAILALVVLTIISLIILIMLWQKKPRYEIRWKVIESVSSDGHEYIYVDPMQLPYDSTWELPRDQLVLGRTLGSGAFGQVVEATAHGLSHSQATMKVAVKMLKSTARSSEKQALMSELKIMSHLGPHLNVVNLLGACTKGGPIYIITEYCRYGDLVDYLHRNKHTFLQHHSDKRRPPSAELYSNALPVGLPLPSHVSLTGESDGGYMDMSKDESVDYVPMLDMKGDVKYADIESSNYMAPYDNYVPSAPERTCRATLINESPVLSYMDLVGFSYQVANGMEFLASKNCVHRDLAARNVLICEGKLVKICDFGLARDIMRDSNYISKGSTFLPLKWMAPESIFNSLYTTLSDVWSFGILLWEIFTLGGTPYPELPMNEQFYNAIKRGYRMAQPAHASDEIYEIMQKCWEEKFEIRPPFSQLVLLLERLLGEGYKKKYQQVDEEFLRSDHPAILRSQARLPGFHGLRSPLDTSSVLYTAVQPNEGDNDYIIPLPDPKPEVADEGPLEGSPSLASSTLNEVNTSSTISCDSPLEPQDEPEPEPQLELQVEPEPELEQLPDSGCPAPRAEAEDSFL
smiles,measurement,setting,value
CN[C@@H]1C[C@H]2O[C@@](C)([C@@H]1OC)n1c3ccccc3c3c4c(c5c6ccccc6n2c5c31)C(=O)NC4,residual activity,PDGFRB (human),2.28%
same,residual activity,YES1 (human),4.48%
same,residual activity,EPHA2 (human),21.3%
same,residual activity,CDK5 CDK5R1 p35 (human),1.92%
same,residual activity,CAMKK1 (human),-3.13%
